Tested on: malignant melanoma
Experiment: study in cutaneous/subcutaneous malignant melanoma
Type: in vivo
Settings: human melanoma; EMD521873 0.3 mg/kg and local radiation vs EMD521873 only
Protocol: A study is performed to investigate the responses of cutaneous metastases in patients with stage IIIb-IV cutaneous/subcutaneous malignant melanoma to EMD521873 at the tumor site and in blood to EMD521873 in combination with local irradiation (25 Gy). The first treatment cycle with EMD521873 starts on day 1. Subsequent cycles are administered at 3-week intervals. Prior to the first dose of EMD521873, subjects are treated with two courses of local radiation (25 Gy) administered in fractions of 5 Gy on 5 consecutive days ([…]; and days −7 to −3) to different metastases.
For each patient, at least two cutaneous or subcutaneous lesions eligible for biopsy are selected for potential radiation (lesion A1 and lesion A2) and, if present, a third lesion (lesion A3) is also selected. A biopsy of a cutaneous/subcutaneous lesion (lesion A1) and blood sampling are performed at baseline (D-28). After 7 days, allowing for the necessary healing of the biopsy area, lesion A1 is irradiated (5×5 Gy) over 5 consecutive days starting on day −21 (D−21 to D−17). On day −7 (D−7) blood samples are withdrawn and a biopsy of the irradiated lesion A1 is taken. This tumor sample serves as an intraindividual control to assess the effect of radiation alone. On day −14, the pre-selected lesions A2 and A3 are also biopsied and blood drawn. […]

dI-NHS76γ2(h)(FN>AQ)-ala-IL2(D20T) [EMD521873]
tumor progression (PET or CT scan): reduced tumor progression
